One data set addresses PDE 2 (cGP-stimulated) (Homo sapiens, UniProt O00408). Description: Activity against other Phosphodiesterase enzymes: PDE 2. The data set is classed as biochemical. To be noted: read-out: IC50 values PDE2. The protocol: (§1) Additionally, activity of the compounds were tested against other Phosphodiesterase enzymes, namely, PDE 1 (Ca^2+/calmodulin-dependent), PDE 2 (cGP-stimulated), PDE 3 (cGP-inhibited), PDE 5 (cGP-specific) and PDE 6 (cGP-specific, photoreceptor).
(§2) Results were expressed as percent inhibition (IC50) in nM concentrations. The IC50 values were determined from the concentration curves by nonlinear regression analysis.

Data set [1] concerns the target PDE 6 (cGP-specific, photoreceptor). Description: Activity against other Phosphodiesterase enzymes: PDE 6. The data set is classed as biochemical. As for the experimental part: as §1, §2
Data set [2] deals with PDE 1 (Ca2+/calmodulin-dependent). Description: Activity against other Phosphodiesterase enzymes: PDE 1. The format is biochemical. The protocol: as §1, §2
The test system of another data set is PDE4. Description: Cell Based Assay for PDE4 Inhibition: cAMP elevation in whole U937 cells. To be noted: 1 μM PGE1, normalized over PGE1. The protocol: Cell Based Assay for PDE4 Inhibition:
cAMP elevation studies were conducted in whole U937 cells. U937 cells (ATCC) were grown in RPMI medium containing 10% FBS, 1% pen-strep solution, 1% L-glutamine for 48 hrs. On the day of assay, the cells were washed twice with plain RPM1 medium by centrifuging at 800 rpm for 5 mins. Cells were resuspended in plain RPM1 medium followed by cell number and viability assessment using a trypan blue stain. Cells (0.15-0.2 mio cells per well) were seeded in a 96 well microtitre plate and incubated with various drugs/DMSO vehicle at 37° C. for 15 min. cAMP generation was started by addition of 1 μM PGE1 for 15 mins. The incubation was terminated by addition of cell lysis buffer from cAMP estimation kit. Lysate was used for cAMP quantitatin by chemiluminescence method (DiscoveRX kits). cAMP values were normalized over PGE1. EC50 values were calculated from dose response curves by nonlinear regression analysis using PRISM software.

For another data set, the target named is PDE4 enzyme. The experiment in a line: Inhibition of Phosphodiesterase Enzymes (PDE4), [3H]cAMP hydrolysis. The data set is classed as biochemical. As for the experimental part: Inhibition of Phosphodiesterase Enzymes (PDE4)
In this assay, PDE4 enzyme converts [^3H] cAMP to the corresponding [^3H] 5′-AMP in proportion to the amount of PDE4 present The [^3H] 5′-AMP then was quantitatively converted to free [^3H] adenosine and phosphate by the action of snake venom 5′-nucleotidase.
The assay was performed with modification of the method of Thompson and Appleman (Biochemistry; 1971; 10; 311-316) and Schwartz and Passoneau (Proc. Natl. Acad. Sci. U.S.A. 1974; 71; 3844-3848), both references incorporated herein by reference in their entirety, at 34° C. In a 200 ul total reaction mixture, the reaction mixture contained 12.5 mM of Tris, 5 mM MgCl2, 1 μM cAMP (cold) and ^3H cAMP (0.1 uCi), (Amersham). […] Drug samples were then added in the reaction mixture (25 μl/tube). The assay was initiated by addition of enzyme mix (75 μl) and the mixture was incubated for 20 minutes at 34° C. The reaction was stopped by boiling the tubes for 2 mins at 100° C. in a water bath. After cooling on ice for 5 minutes and addition of 50 ug/reaction of 5′-nucleotidase snake venom from Crotalus atrox incubation was carried out again for 20 min. at 34° C. The unreacted substrate was separated from (^3H) Adenosine by addition of Dowex AG 1-X8 (Biorad Lab), (400 ul) which was prequilibrated (1:1:1) in water and ethanol. Reaction mixture was then thoroughly mixed, placed on ice for 15 minutes, vortexed and centrifuged at 14,000 r.p.m. for 2 mins. After centrifugation, a sample of the supernatant was taken and added in 24 well optiplates containing Scintillant (1 ml) and mixed well. The samples in the plates were then determined for radioactivity in a Top Counter and the PDE4 activity was estimated. PDE4 enzyme was present in quantities that yield <30% total hydrolysis of substrate (linear assay conditions).
as §2
The IC50 value for the compound examined was determined from concentration-response curves in which varying range of concentrations were considered as shown in table 1

Another data set has as its target PDE 3 (cGP-inhibited). Description: Activity against other Phosphodiesterase enzymes: PDE 3. The data set is classed as biochemical. To be noted: read-out: IC50 values PDE3. The protocol:
as §1, §2

Experimental findings from patent publication US7238725B2, “Tricyclic compounds useful for the treatment of inflammatory and allergic disorders: process for their preparation and pharmaceutical compositions containing them” (Glenmark Pharmaceuticals Ltd., priority 2002, dated 2007) are described below.

Like-named read-outs stand apart in the source and are kept apart here.

Sequence of PDE 2 (cGP-stimulated) (O00408 whole entry): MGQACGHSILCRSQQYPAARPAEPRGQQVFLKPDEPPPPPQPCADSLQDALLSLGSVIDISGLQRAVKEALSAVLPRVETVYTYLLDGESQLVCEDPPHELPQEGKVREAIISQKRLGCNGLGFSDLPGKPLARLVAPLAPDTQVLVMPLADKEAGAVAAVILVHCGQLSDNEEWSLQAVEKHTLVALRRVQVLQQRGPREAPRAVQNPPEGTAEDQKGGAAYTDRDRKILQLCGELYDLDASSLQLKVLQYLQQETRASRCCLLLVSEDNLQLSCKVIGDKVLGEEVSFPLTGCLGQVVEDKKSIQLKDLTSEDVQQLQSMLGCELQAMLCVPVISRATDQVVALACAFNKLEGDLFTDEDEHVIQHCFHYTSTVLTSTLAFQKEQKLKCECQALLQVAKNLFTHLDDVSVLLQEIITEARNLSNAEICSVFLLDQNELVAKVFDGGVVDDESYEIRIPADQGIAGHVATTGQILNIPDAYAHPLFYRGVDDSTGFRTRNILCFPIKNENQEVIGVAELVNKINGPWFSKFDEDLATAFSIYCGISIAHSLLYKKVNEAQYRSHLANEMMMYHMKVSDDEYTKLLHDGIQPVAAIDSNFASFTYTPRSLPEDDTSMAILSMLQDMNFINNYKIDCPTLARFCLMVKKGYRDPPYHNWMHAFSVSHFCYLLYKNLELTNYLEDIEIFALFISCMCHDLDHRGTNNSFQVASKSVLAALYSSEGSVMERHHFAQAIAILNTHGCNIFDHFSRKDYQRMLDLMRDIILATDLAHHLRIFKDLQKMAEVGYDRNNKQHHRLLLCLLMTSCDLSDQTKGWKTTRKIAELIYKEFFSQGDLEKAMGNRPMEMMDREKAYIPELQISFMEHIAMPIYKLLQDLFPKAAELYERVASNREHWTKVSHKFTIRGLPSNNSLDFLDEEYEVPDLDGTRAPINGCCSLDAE

Broadly, the IC50 is the concentration that gives 50% inhibition. As a reminder, the % inhibition is the change of the read-out against control, counted positive when it falls. A word on the melting point: it is the temperature of the solid-liquid transition. In general, EC50 refers to the midpoint of the concentration-response curve. The compound `COc1ccc(C(=O)Nc2c(Cl)cncc2Cl)c2c1oc1ccccc12` [Example 1, N-(3,5-dichloropyrid-4-yl)-4-methoxy dibenzo[b,d]furan-1-carboxamide] came in with a melting point of 302 °C. Besides, the IC50 on PDE 2 (cGP-stimulated) was determined as 69100 nM. In addition, the “% inhibition at 100 µM” value in data set [1] is 36%. For the same compound, the “% inhibition at 100 µM” value in data set [2] turned out to be 44%. Moreover, the EC50 in the data set on PDE4 was 83.7 nM. For the same compound, at PDE4 enzyme (PDE4 enzyme, 1 μM cAMP and 3H cAMP, 34° C., read-out: IC50), the IC50 stood at 0.8 nM. Further, on PDE4 enzyme (Table 1, read-out: IC50 values PDE4), the IC50 worked out at 0.8 nM. Also, the IC50 at PDE 3 (cGP-inhibited) was 61800 nM.
